# Laboratory results taken from article PMC9022420 (Scientific Reports, 2022).
# What was measured:
# [1] = Flavin photostability in PBS under white LED irradiation; type: physicochemical; conditions: 30 min, 100 µM, pH 7.4
# Text: After successful synthesis and initial characterisation, we monitored the photostability of the compounds in PBS (1x, pH 7.4) which was used for PDI assays as distilled or ultrapure water destabilises bacterial cells and coronaviruses through osmotic pressures[37],[38], thereby augmenting inactivation results. […] This yields lumichrome as the major degradation product which can only act as a PS under UV-irradiation[40]. […] However, it appears that guanidino substitution in our case improves the photostability.
# Figure S4: (A) Flavin photostability (100 µM) in PBS (0.1% DMSO) irradiated with 1x105 lx (35 mW/cm2) where A
# = Abs at 450 nm and A0 = Abs at 450 nm at 0 min.
# photostability. Experiments were performed using a quartz cuvette and measured using an Agilent Cary 300
# (1 picture or pasted object on this page, not shown here)
# [2] = test system: E. coli BL21(DE3); assay: Photodynamic inactivation of E. coli (CFU counting); type: cell-based
# Protocol: After an overnight aerobic culture in LB broth at 37 °C with shaking at 225 rpm, the resulting E. coli were centrifuged at 2,500 rpm for 10 min. The pellet was resuspended in PBS (Sigma, 1x, pH 7.4) to an OD600 value of 0.6 (~ 1 × 10^8 bacteria per ml). […] Aliquots of negative controls (0.5% DMSO in PBS; PBS only) and 100 μM flavin-bacteria samples were covered in foil to remain in dark, while all samples were plated onto a 96-well plate and exposed to white LED irradiation (1 × 10^5 lx) for 15 min. After 15 min of irradiation or darkness, each sample was serially diluted to its respective, appropriate dilution and plated onto an LB agar plate with 50 μg/mL kanamycin. Plates were incubated overnight at 37 °C in the dark. Survival of bacteria was determined by counting colony forming units (CFUs) the next day.
# For time point data, aliquots of 100 μM flavin-bacteria solutions were taken at 5-min increments of irradiation (0, 5, 10, and 15 min) and evaluated similarly as above. Time point experiment with one-minute increments, between 0 and 5 min, were conducted for 100 μM F4-bacteria samples.
# [3] = test system: pDNA (pUC18); assay: pDNA photocleavage, agarose gel electrophoresis; type: biochemical; conditions: 10 µM flavin, 15 min white LED, PBS 0.1% DMSO
# Protocol: (§1) A 20 µL aliquot was taken after 15 min of white LED irradiation (1 × 10^5 lx). Prior to loading, 2 µL of 6X Orange-G loading dye in glycerol were added to the aliquot and mixed vigorously. The gel was electrophoresed at 80 V for 35 min with 1% agarose gels in 1X Tris–acetate-EDTA (TAE) buffer. Gels were then imaged in a Syngene G:BOX Gel Documentation System and band % quantification was performed using ImageJ Gel Analyzer.
# [4] = test system: murine hepatitis virus A59 strain (MHV-A59); assay: Photodynamic inactivation of MHV-A59 (TCID50 assay in 17Cl-1 cells); type: cell-based
# Protocol: The efficacy of the flavins were enumerated utilizing modified methods from ISO 18,184 and Leibowitz et al.[56] […] 100 µM working stock solutions were then created by diluting each DMSO solution into PBS. To control for the effect of DMSO on MHV-A59, DMSO was diluted into PBS at the same concentration. A white light apparatus was set up to cover a 4 × 5 (row x column) area of a 96-well plate with the same level of light intensity (1 × 10^5 lx). The stock solutions were then diluted in replicates of four to a total of 180 µl in PBS at 1, 5, and 10 µM concentrations for each sample. Virus stocks of MHV-A59 were thawed on ice prior to use. 20 µl of MHV-A59 stock (1.4 × 10^9 PFU/ml) was then mixed into each well, and the 4 × 5 well matrix was treated with the light or incubated in the dark at room temperature for a specified time (5, 10, or 15 min).
# After treatment, the samples were mixed into 320 µl of Gibco Difco™ Beef Extract (1.5% w/v beef extract in ddH2O; Life Technologies) and rolled for 15 min to chelate any free ions in the solution. The samples then were serially diluted (10^0–10^–7) in infectivity media (Dulbecco’s modified Eagle’s medium low glucose 1 g/L (DMEM, Life Technologies) supplemented with 2.5% fetal bovine serum (Merck), 3% tryptose phosphate broth (Merck), 1 × non-essential amino acids (Gibco), 1 × antibiotic–antimycotic (Thermo Fisher Scientific) and 1 × L-Glutamine (Gibco]) and added in triplicate to 17Cl-1 cell plates. For each sample or control there were 4 replicate treatments (in light or dark); each treatment replicate was plated in triplicate. Infected 17Cl-1 plates were incubated at 37 °C in a 5% CO2 atmosphere for 24 h. Plates were scored for cytopathic effect (CPE) by microscopy and viral titres were determined by the Reed and Muench 50% tissue culture infectious dose (TCID50) end point method. Outliers were removed from the four replicates using an outlier test. The full protocol was repeated in triplicate on different days to account for any variability in the assay.
# [5] = test system: ssRNA (EGFP-encoding mRNA, ~ 1 k nt); assay: ssRNA photocleavage, agarose gel electrophoresis; type: biochemical; conditions: 10 µM flavin, 15 min white LED, PBS 0.1% DMSO
# Protocol: as §1
# [6] = test system: WI-38 cells; assay: 24 h MTS cytotoxicity assay, WI-38; type: cell-based; conditions: Homo sapiens, 24 h incubation, dark
# Protocol: (§2) The MTS tetrazolium compound is reduced by cells into a coloured formazan product which is soluble in cell culture media. It can be detected colorimetrically between 450 and 540 nm with the measured absorbance directly proportional to the amount of metabolically active cells in culture. Cells were seeded into clear 96-well plates containing 10,000 cells/well in 100 µL complete growth medium and cultured for 24 h at 37 °C and 5% CO2. […] After further 24 h incubation at 37 °C and 5% CO2, 20 µL of CelTiter 96® AQueous One Solution (Promega) was added into each well and incubated at 37 °C, 5% CO2 for 1–4 h, according to the manufacturer’s instruction. The absorbance of each well was measured at 490 nm using a plate reader (Spark, Tecan). Control measurements included negative control of cells with DMEM, cells with DMEM containing 0.1% DMSO, cell-free culture media (blank) and cell-free sample dilutions in culture media to evaluate potential sample interferences with MTS assay. All experiments were conducted in biological triplicates. The percentage cell viability was calculated according to Eq. (1):1 Cell viability(%)=100×Absorbanceoftreatedcells-Absorbanceofblank/Absorbanceofcontrol-Absorbanceofblank
# [7] = test system: 17Cl-1 cells; assay: 24 h MTS cytotoxicity assay, 17Cl-1; type: cell-based, murine; conditions: Mus musculus, 24 h incubation, dark
# Protocol: as §2
# [8] = test system: WI-38 cells; assay: Light-induced toxicity towards WI-38 cells (MTS); type: cell-based, human; conditions: 10 μM flavin, 15 min irradiation 1 × 10^5 lx
# Protocol: An adapted method reported by Maisch et al. was used to conduct phototoxicity studies on human lung fibroblasts, WI-38[28]. Cells were seeded into 96-well plates containing 10,000 cells/well in 100 µL complete growth medium and cultured for 24 h at 37 °C and 5% CO2. […] The resulting mixtures were then incubated in the dark for 5 min and then either illuminated with 1 × 10^5 lx for 5, 10 or 15 min, or incubated further in the dark for 15 min (dark control). After irradiation, the flavin solutions were removed and 100 μL of DMEM with 10% FBS and without phenol red was added to each well and incubated over night at 37 °C and 5% CO2. Subsequently, 20 µL of MTS reagent was added into each well and incubated at 37 °C and 5% CO2 for 1–4 h and the absorbance of each well was measured at 490 nm using a plate reader. Control measurements included negative control untreated cells with light and in the dark containing 0.1% DMSO and cells treated with flavins for 15 min in the dark. All experiments were conducted in biological triplicates. The percentage cell viability was calculated according to Eq. (1).
# [9] = 5 µM flavin, 10 min irradiation
smiles,measurement,setting,value
"Cc1cc2nc3c(=O)[nH]c(=O)nc-3n(C[C@H](O)[C@H](O)[C@H](O)CO)c2cc1C [Riboflavin, reference compound]",photodecomposition / degradation,[1],80%
same,E. coli log10 reduction of CFUs,"[2]; 1 µM flavin, 15 min irradiation (31.5 J/cm^2)",0.2 log10
same,E. coli log10 reduction of CFUs,"[2]; 1 µM flavin, 15 min irradiation (31.5 J/cm^2), listed as riboflavin",no inactivation
same,E. coli log10 reduction of CFUs,"[2]; 10 µM flavin, 15 min irradiation",0.2 log10
same,E. coli log10 reduction of CFUs,"[2]; 100 µM flavin, 5 min irradiation (10.5 J/cm^2)",0.0 log10
same,E. coli log10 reduction of CFUs,"[2]; 100 µM flavin, 10 min irradiation",0.0 log10
same,E. coli log10 reduction of CFUs,"[2]; 100 µM flavin, 15 min irradiation",0.0 log10
same,E. coli log10 reduction of CFUs,"[2]; 100 µM flavin, 15 min irradiation, listed as riboflavin",no activity
same,% NC (nicked coiled pDNA after photocleavage),[3],11%
same,MHV-A59 log10 reduction in viral titre,"[4]; 1 µM flavin, 10 min irradiation (21.0 J/cm^2)",1.2 log10
same,MHV-A59 log10 reduction in viral titre,[4]; [9],3.2 log10
same,MHV-A59 viral load reduction,[4]; [9],> 99.9%
same,MHV-A59 log10 reduction in viral titre,"[4]; 10 µM flavin, 5 min irradiation (10.5 J/cm^2)",2.7 log10
same,MHV-A59 log10 reduction in viral titre,"[4]; 10 µM flavin, 10 min irradiation",3.4 log10
same,MHV-A59 log10 reduction in viral titre,"[4]; 10 µM flavin, 15 min irradiation (31.5 J/cm^2)",3.7 log10
same,% cleaved ssRNA,[5],28%
same,IC50,[6],> 100 µM
same,IC50,[7],> 100 µM
same,reduction in cell viability (light-induced toxicity),[8],no decrease in cell viability
